In US7223733B2, “Modulation of TRIP-Br function and method of treating proliferative disorders” (National University of Singapore, priority 2004, dated 2007):
[invdT] = inverted (3'-3') thymidine

Key:
hTRIP-Br2 mRNA = test: Semi-quantitative RT-PCR of intact hTRIP-Br2 transcripts in WI-38 cells; assay type: cell-based, human; conditions: WI-38, 0.1 μM, 16 h post-stimulation with 10% FBS
Method: (§1) DNA enzyme transfection. WI-38 cells were rendered quiescent by cultivation in serum-free medium for 72 h before being transfected with DNA enzyme (0.1 μM) using Superfect as reported previously (Santiago, F. S., et al. Nat Med 5, 1264-1269 (1999)) in accordance to manufacturer's recommendations (Qiagen).
(§2) Semi-quantitative RT-PCR. Following various treatments, WI-38 cells in 6-well culture dish were subjected to total RNA extraction using the TRIZOL® Reagent (Life Technologies). Total RNA (4 μg) was reversed transcribed using oligo-dT and M-MLV reverse transcriptase in a total reaction volume of 20 μl. Polymerase Chain Reactions (PCR) were carried out on 3 μl cDNA sample in the presence of […] deoxyribonucleotide triphosphates (dNTPs) and 40 μM of specific primer pairs in a total reaction volume of 50 μl. […] Post-PCR samples were analyzed by agarose gel electrophoresis.
(§3) FIG. 11: (A) hTRIP-Br1 and hTRIP-Br2 expression is serum-inducible. […] At 24 h post-serum re-stimulation, semi-quantitative RT-PCR analysis was performed on total RNA to assess hTRIP-Br1 and hTRIP-Br2 expression. β-actin was included as an internal control. […] Semi-quantitative RT-PCR analysis was performed on total RNA to assess hTRIP-Br1 and hTRIP-Br2 expression. β-actin was included as an internal control. […]

hTRIP-Br1 mRNA = test: Semi-quantitative RT-PCR of intact hTRIP-Br1 transcripts in WI-38 cells; assay type: cell-based, human; conditions: WI-38, 0.1 μM, 16 h post-stimulation with 10% FBS
Method: as §1, §2, §3

Which “serum-inducible steady-state hTRIP-Br2 mRNA level” value (hTRIP-Br2 mRNA) does the source give for “5′-T TACCCAACAGGCTAGCTACAACGAATATCACA-3′ (DNA TTACCCAACAGGCTAGCTACAACGAATATCACA; DNA, 3' [invdT], backbone not given here) [E-Br2]” here?
Its value is “efficiently down-regulated”.

For “5′-T TGCTCAGCAGGCTAGCTACAACGACTTGCTCA-3′ (DNA TTGCTCAGCAGGCTAGCTACAACGACTTGCTCA; DNA, 3' [invdT], backbone not given here) [E-Br1]”, which “serum-inducible steady-state hTRIP-Br1 mRNA level” value (hTRIP-Br1 mRNA) is on record?
Its value is “efficiently down-regulated”.
